# Where two headings read alike, the source gives them in different places.
# What was measured:
# RSV = experiment: XTT assay, RSV-infected Vero cells; assay type: cell-based, Respiratory Syncytial Virus (RSV); conditions: Vero cells infected with RSV, m.o.i.≈0.2, 6 days at 33° C.
# Description: Examples 1 to 74 and 83 to 124 were tested using the following protocol.
# (§1) The inner 60 wells of 96 well tissue culture plates were seeded with Vero cells at 3×10^4 cells/well (1×10^4 cells/well for toxicity studies) in 100 or 150 μl of medium and incubated at 37° C. overnight or until nearing confluency. For primary screen, 25 μl compounds were added directly to 100 μl medium in single wells to duplicate plates. A third plate was prepared for simultaneous toxicity investigation.
# (§2) For follow-up investigation, 70 μl of compound in duplicate wells were added directly to culture medium at 3.2× final concentration and ½ log serially diluted down columns of plate. A duplicate plate was prepared for simultaneous toxicity investigation.
# (§3) Cells were infected with 25 μl RSV to give m.o.i.≈0.2. Some 100 μl of sterile distilled water were added to the outer wells of the plate and incubated at 33° C. for 6 days. Some 0.25 μl/ml PMS were added to stock XTT solution, final conc. […]. Then 25 μl warmed XTT/PMS solution were added to each well and incubated for 5 hours at 37° C. Plates were shaken (DynaTech Vari-Shaker) vigorously for 10 mins and allowed to cool for 15 mins before sealing. Absorbance at 450 nm was measured and data analysed using Microsoft Excel software.
# Maximum OD450nm reading (uninfected, untreated control cells) corresponded to 100% inhibition. Minimum OD450nm readings (infected control cells) corresponded to 0% inhibition. Log 10 concentration was plotted against OD450nm and IC50 (Table 1) values were calculated from either reading 50% value from graph or using regression analysis.
# Vero cells = experiment: Simultaneous toxicity investigation (XTT), Vero cells; assay type: cell-based; parameters: unit not given here; conditions: for TC50 (2d): Table 2, Examples 83 to 124, 2d; for TC50 (6d): Table 2, Examples 83 to 124, 6d
# Description: as §1, §2
# as §3, with “Some 100 μl of sterile distilled water were added to the outer wells of the plate and incubated at 33° C. for 6 days.” left out
# [1] = human respiratory syncytial virus, Vero, 144 h, read-out: XTT IC50 (uM), Table 1
# [2] = human respiratory syncytial virus, Vero, 144 h, read-out: XTT IC50 (uM), Table 2, Examples 83 to 124
compound,measurement,setting,value
"1-(2-Chloro-6-methyl-phenyl)-3-(2-oxo-5-phenyl-2,3-dihydro-1H-benzo[e][1,4]diazepin-3-yl)-urea [Example 121]",IC50,"RSV; Table 2, Examples 83 to 124, read-out: XTT IC50",4 µM
same,TC50 (2d),Vero cells,60
same,TC50 (6d),Vero cells,60
"CS(=O)(=O)NC1N=C(c2ccccc2)c2cc(Cl)ccc2NC1=O (centres unmarked) [Example 53, N-(7-Chloro-2-oxo-5-phenyl-2,3-dihydro-1H-benzo[e][1,4]diazepin-3-yl)-methanesulformide]",IC50,"RSV; Table 1, read-out: XTT IC50",5 µM
"O=C(NC1N=C(c2ccccc2)c2cc(Cl)ccc2NC1=O)c1ccco1 (centres unmarked) [Example 54, Furan-2-carboxylic acid (7-chloro-2-oxo-5-phenyl-2,3-dihydro-1H-benzo[e][1,4]diazepin-3-yl)-amide]",IC50,RSV; [1],1.5 µM
"O=C(NC1N=C(c2ccccc2)c2cc(Cl)ccc2NC1=O)c1cccs1 (centres unmarked) [Example 55, Thiophene-2-carboxylic acid (7-chloro-2-oxo-5-phenyl-2,3-dihydro-1H-benzo[e][1,4]diazepin-3-yl)-amide]",IC50,RSV; [1],3 µM
"O=C(NC1N=C(c2ccccc2)c2cc(Cl)ccc2NC1=O)C1CCCCC1 (centres unmarked) [Example 56, Cyclohexanecarboxylic acid (7-Chloro-2-oxo-5-phenyl-2,3-dihydro-1H-benzo[e][1,4]diazepin-3-yl)-amide]",IC50,RSV; [1],5 µM
"COc1ccccc1C(=O)NC1N=C(c2ccccc2)c2cc(Cl)ccc2NC1=O (centres unmarked) [Example 57, N-(7-Chloro-2-oxo-5-phenyl-2,3-dihydro-1H-benzo[e][1,4]diazepin-3-yl)-2-methoxy-benzamide]",IC50,RSV; [1],0.7 µM
"COc1ccc(C(=O)NC2N=C(c3ccccc3)c3cc(Cl)ccc3NC2=O)cc1 (centres unmarked) [Example 58, N-(7-Chloro-2-oxo-5-phenyl-2,3-dihydro-1H-benzo[e][1,4]diazepin-3-yl)-4-methoxy-benzamide]",IC50,RSV; [1],1.2 µM
"O=C(NC1N=C(c2ccccc2)c2cc(Cl)ccc2NC1=O)c1ccccc1[N+](=O)[O-] (centres unmarked) [Example 59, N-(7-Chloro-2-oxo-5-phenyl-2,3-dihydro-1H-benzo[e][1,4]diazepin-3-yl)-2-nitro-benzamide]",IC50,RSV; [1],5 µM
"COc1ccccc1CC(=O)NC1N=C(c2ccccc2)c2ccccc2NC1=O (centres unmarked) [Example 60, 2-(2-Methoxy-phenyl)-N-(2-oxo-5-phenyl-2,3-dihydro-1H-benzo[e][1,4]diazepin-3-yl)-acetamide]",IC50,RSV; [1],5 µM
"COc1cccc(CC(=O)NC2N=C(c3ccccc3)c3ccccc3NC2=O)c1 (centres unmarked) [Example 61, 2-(3-Methoxy-phenyl)-N-(2-oxo-5-phenyl-2,3-dihydro-1H-benzo[e][1,4]diazepin-3-yl)-acetamide]",IC50,RSV; [1],3 µM
"COc1ccc(CC(=O)NC2N=C(c3ccccc3)c3ccccc3NC2=O)cc1 (centres unmarked) [Example 62, 2-(4-Methoxy-phenyl)-N-(2-oxo-5-phenyl-2,3-dihydro-1H-benzo[e][1,4]diazepin-3-yl)-acetamide]",IC50,RSV; [1],1.5 µM
"O=C(Cc1ccc([N+](=O)[O-])cc1)NC1N=C(c2ccccc2)c2ccccc2NC1=O (centres unmarked) [Example 63, 2-(4-Nitro-phenyl)-N-(2-oxo-5-phenyl-2,3-dihydro-1H-benzo[e][1,4]diazepin-3-yl)-acetamide]",IC50,RSV; [1],1.7 µM
"O=C(Cc1cccc([N+](=O)[O-])c1)NC1N=C(c2ccccc2)c2ccccc2NC1=O (centres unmarked) [Example 64, 2-(3-Nitro-phenyl)-N-(2-oxo-5-phenyl-2,3-dihydro-1H-benzo[e][1,4]diazepin-3-yl)-acetamide]",IC50,RSV; [1],1 µM
"O=C(Cc1ccccc1C(F)(F)F)NC1N=C(c2ccccc2)c2ccccc2NC1=O (centres unmarked) [Example 65, N-(2-Oxo-5-phenyl-2,3-dihydro-1H-benzo[e][1,4]diazepin-3-yl)-2-(2-trifluoromethyl-phenyl)-acetamide]",IC50,RSV; [1],2 µM
"O=C(Cc1cccc(C(F)(F)F)c1)NC1N=C(c2ccccc2)c2ccccc2NC1=O (centres unmarked) [Example 66, N-(2-Oxo-5-phenyl-2,3-dihydro-1H-benzo[e][1,4]diazepin-3-yl)-2-(3-trifluoromethyl-phenyl)-acetamide]",IC50,RSV; [1],1.5 µM
"O=C(Cc1ccc(C(F)(F)F)cc1)NC1N=C(c2ccccc2)c2ccccc2NC1=O (centres unmarked) [Example 67, N-(2-Oxo-5-phenyl-2,3-dihydro-1H-benzo[e][1,4]diazepin-3-yl)-2-(4-trifluoromethyl-phenyl)-acetamide]",IC50,RSV; [1],1.5 µM
"COc1ccccc1NC(=O)NC1N=C(c2ccccc2)c2ccccc2NC1=O (centres unmarked) [Example 68, (2-Methoxy-phenyl)-3-(2-oxo-5-phenyl-2,3-dihydro-1H-benzo[e][1,4]diazepin-3-yl)-urea]",IC50,"RSV; Table 1, read-out: XTT IC50",1 µM
"O=C(Nc1ccccc1[N+](=O)[O-])NC1N=C(c2ccccc2)c2ccccc2NC1=O (centres unmarked) [Example 69, 1-(2-Nitro-phenyl)-3-(2-oxo-5-phenyl-2,3-dihydro-1H-benzo[e][1,4]diazepin-3-yl)-urea]",IC50,RSV; [1],1.5 µM
"O=C(Nc1ccccc1Cl)NC1N=C(c2ccccc2)c2ccccc2NC1=O (centres unmarked) [Example 70, 1-(2-Chloro-phenyl)-3-(2-oxo-5-phenyl-2,3-dihydro-1H-benzo[e][1,4]diazepin-3-yl)-urea]",IC50,RSV; [1],1.5 µM
"O=C(Nc1ccc(Cl)cc1)NC1N=C(c2ccccc2)c2ccccc2NC1=O (centres unmarked) [Example 71, 1-(4-Chloro-phenyl)-3-(2-oxo-5-phenyl-2,3-dihydro-1H-benzo[e][1,4]diazepin-3-yl)-urea]",IC50,"RSV; human respiratory syncytial virus, 144 h, Table 1, read-out: XTT IC50",3 µM
"Cc1ccc(NC(=O)NC2N=C(c3ccccc3)c3ccccc3NC2=O)cc1 (centres unmarked) [Example 72, 1-(2-oxo-5-phenyl-2,3-dihydro-1H-benzo[e][1,4]diazepin-3-yl)-3-p-tolyl-urea]",IC50,RSV; [1],1.5 µM
"O=C(Nc1ccccc1F)NC1N=C(c2ccccc2)c2ccccc2NC1=O (centres unmarked) [Example 73a, 1-(2-Fluoro-phenyl)-3-(2-oxo-5-phenyl-2,3-dihydro-1H-benzo[e][1,4]diazepin-3-yl)-urea]",IC50,RSV; [1],1 µM
"O=C(Nc1ccccc1F)N[C@H]1N=C(c2ccccc2)c2ccccc2NC1=O [Example 73b, (S)-1-(2-Fluoro-phenyl)-3-(2-oxo-5-phenyl-2,3-dihydro-1H-benzo[e][1,4]diazepin-3-yl)-urea]",IC50,RSV; [1],0.7 µM
"O=C(Nc1ccc(F)cc1)NC1N=C(c2ccccc2)c2ccccc2NC1=O (centres unmarked) [Example 74, 1-(4-Fluoro-phenyl)-3-(2-oxo-5-phenyl-2,3-dihydro-1H-benzo[e][1,4]diazepin-3-yl)-urea]",IC50,RSV; [1],1.5 µM
"COc1ccc(C(=O)NC2N=C(c3ccccc3F)c3cc(Cl)ccc3NC2=O)cc1 (centres unmarked) [Example 83, N-[7-Chloro-5-(2-fluoro-phenyl)-2-oxo-2,3-dihydro-1H-benzo[e][1,4]diazepine-3-yl]-4-methoxy-benzamide]",IC50,RSV; [2],6 µM
same,TC50 (2d),Vero cells,>100
same,TC50 (6d),Vero cells,32
"O=C(NCc1ccccc1F)NC1N=C(c2ccccc2)c2ccccc2NC1=O (centres unmarked) [Example 84, 1-(2-Fluoro-benzyl)-3-(2-oxo-5-phenyl-2,3-dihydro-1H-benzo[e][1,4]diazepin-3-yl)-urea]",IC50,RSV; [2],2 µM
same,TC50 (2d),Vero cells,>100
same,TC50 (6d),Vero cells,>100
"COc1ccc(CNC(=O)NC2N=C(c3ccccc3)c3ccccc3NC2=O)cc1 (centres unmarked) [Example 85, 1-(4-Methoxy-benzyl)-3-(2-oxo-5-phenyl-2,3-dihydro-1H-benzo[e][1,4]diazepin-3-yl)-urea]",IC50,RSV; [2],4 µM
same,TC50 (2d),Vero cells,>100
same,TC50 (6d),Vero cells,>100
"Cc1cccc(CNC(=O)NC2N=C(c3ccccc3)c3ccccc3NC2=O)c1 (centres unmarked) [Example 86, 1-(3-Methyl-benzyl)-3-(2-oxo-5-phenyl-2,3-dihydro-1H-benzo[e][1,4]diazepin-3-yl)-urea]",IC50,RSV; [2],3 µM
same,TC50 (2d),Vero cells,>100
same,TC50 (6d),Vero cells,100
"O=C(Nc1ccc(C(F)(F)F)cc1)NC1N=C(c2ccccc2)c2ccccc2NC1=O (centres unmarked) [Example 87, 1-(2-Oxo-5-phenyl-2,3-dihydro-1H-benzo[e][1,4]diazepin-3-yl)-3-(4-trifluoromethyl-phenyl)-urea]",IC50,RSV; [2],4 µM
same,TC50 (2d),Vero cells,50
same,TC50 (6d),Vero cells,50
"COc1cc(Cl)ccc1C(=O)NC1N=C(c2ccccc2)c2ccccc2NC1=O (centres unmarked) [Example 88, 4-Chloro-2-methoxy-N-(2-oxo-5-phenyl-2,3-dihydro-1H-benzo[e][1,4]diazepin-3-yl)-benzamide]",IC50,RSV; [2],0.3 µM
same,TC50 (2d),Vero cells,100
same,TC50 (6d),Vero cells,40
